Consider 29 compounds from patent US20070054916A1, “Aryl nitrogen-containing bicyclic compounds and methods of use” (Amgen Inc., priority 2004, published 2007).

pIC50: −log10 of the molar value.

In the experiment the test system is production of TNF by monocytes activated with bacterial lipopolysaccharide (LPS). Nature of the experiment: Lipopolysaccharide-activated monocyte TNF production assay. It is filed as cell-based. The following applies: Homo sapiens, read-out: IC50 values in the monocyte assay (LPS induced TNF release). The protocol: Lipopolysaccharide-Activated Monocyte TNF Production Assay
Test compounds were evaluated in vitro for the ability to inhibit the production of TNF by monocytes activated with bacterial lipopolysaccharide (LPS). Fresh residual source leukocytes (a byproduct of plateletpheresis) were obtained from a local blood bank, and peripheral blood mononuclear cells (PBMCs) were isolated by density gradient centrifugation on Ficol-Paque Plus (Pharmacia). PBMCs were suspended at 2×10^6/ml in DMEM supplemented to contain 2% FCS, 10 mM, 0.3 mg/ml […], 100 U/ml penicillin G and […] streptomycin sulfate (complete media). Cells were plated into Falcon flat bottom, 96 well culture plates (200 μl/well) and cultured overnight at 37° C. and 6% CO2. Non-adherent cells were removed by washing with 200 μl/well of fresh medium. Wells containing adherent cells (˜70% monocytes) were replenished with 100 μl of fresh medium.
Preparation of Test Compound Stock Solutions
Test compounds were dissolved in […]. Compound stock solutions were prepared to an initial concentration of […]. Stocks were diluted initially to 20-200 μM in complete media. Nine two-fold serial dilutions of each compound were then prepared in complete medium.
Treatment of Cells with Test Compounds and Activation of TNF Production with Lipopolysaccharide
One hundred microliters of each test compound dilution were added to microtiter wells containing adherent monocytes and 100 μl complete medium. Monocytes were cultured with test compounds for 60 min at which time 25 μl of complete medium containing 30 ng/ml lipopolysaccharide from E. coli K532 were added to each well. Cells were cultured an additional 4 hrs. Culture supernatants were then removed and TNF presence in the supernatants was quantified using an ELISA.
Flat bottom, 96 well Corning High Binding ELISA plates were coated overnight (4° C.) with 150 μL/well of 3 μg/ml murine anti-human TNF-α MAb (R&D Systems #MAB210). Wells were then blocked for 1 hr at room temperature with 200 μL/well of CaCl2-free ELISA buffer supplemented to contain 20 mg/ml BSA (standard ELISA buffer: […], 150 mM NaCl, 2 mM CaCl2, 0.15 mM thimerosal, pH 7.4). Plates were washed and replenished with 100 μl of test supernatants (diluted 1:3) or standards. Standards consisted of eleven 1.5-fold serial dilutions from a stock of 1 ng/ml recombinant human TNF (R&D Systems). Plates were incubated at room temperature for 1 hr on orbital shaker (300 rpm), washed and replenished with 100 μl/well of 0.5 ug/ml goat anti-human TNF-α (R&D systems #AB-210-NA) biotinylated at a 4:1 ratio. Plates were incubated for 40 min, washed and replenished with 100 μl/well of alkaline phosphatase-conjugated streptavidin (Jackson ImmunoResearch #016-050-084) at 0.02 ug/ml. Plates were incubated 30 min, washed and replenished with 200 μl/well of 1 mg/ml of p-nitrophenyl phosphate. After 30 min, plates were read at 405 nm on a Vmax plate reader.
Standard curve data were fit to a second order polynomial and unknown TNF-α concentrations determined from their OD by solving this equation for concentration. TNF concentrations were then plotted vs. test compound concentration using a second order polynomial. This equation was then used to calculate the concentration of test compounds causing a 50% reduction in TNF production.

The pIC50 is the negative decadic logarithm of the IC50, by convention in mol/L. `Cc1ccc(C(=O)Nc2cc(CN3CCN(C)CC3)cc(C(F)(F)F)c2)cc1-c1ccc2nc(N)ncc2c1` [Example 159, 3-(2-amino-6-quinazolinyl)-4-methyl-N-(3-((4-methyl-1-piperazinyl)methyl)-5-(trifluoromethyl)phenyl)benzamide]: the negative logarithm of the IC50 (pIC50) is ≥ 4.60.

In the case of `Cc1c(NC(=O)c2cccc(C(F)(F)F)c2)cccc1-c1ccc2nc(N)ncc2c1` [Example 197, N-(3-(2-amino-6-quinazolinyl)-2-methylphenyl)-3-(trifluoromethyl)benzamide], the negative logarithm of the IC50 (pIC50) was ≥ 4.60.

In the case of `Cc1ccc(C(=O)Nc2cccc(C(F)(F)F)c2F)cc1-c1ccc2nc(NC3CCN(C)CC3)ncc2c1` [Example 25], the pIC50 is ≥ 4.60.

With `CNc1ncc2cc(-c3cccc(NC(=O)c4cc(C(F)(F)F)cc(C(F)(F)F)c4)c3C)cnc2n1` [Example 221], the pIC50 is ≥ 4.60.

With `Nc1ncc2cc(-c3ccc(F)c(NC(=O)c4cccc(Cl)c4Cl)c3)ccc2n1` [Example 487, N-(5-(2-amino-6-quinazolinyl)-2-fluorophenyl)-2,3-dichlorobenzamide], the pIC50 is ≥ 4.60.

Turning to `Cc1ccc(C(=O)Nc2cc(C(=O)NCCN3CCOCC3)cc(C(F)(F)F)c2)cc1-c1ccc2nc(N)ncc2c1` [Example 6], the negative logarithm of the IC50 (pIC50) was ≥ 4.60.

`Cc1ccc(C(=O)Nc2cccc(C(F)(F)F)c2F)cc1-c1ccc2nc(NCCN3CCCC3)ncc2c1` [Example 26, N-(2-fluoro-3-(trifluoromethyl)phenyl)-4-methyl-3-(2-((2-(1-pyrrolidinyl)ethyl)amino)-6-quinazolinyl) benzamide]: the pIC50 was ≥ 4.60.

For the compound `CSc1ccc(C(F)(F)F)cc1NC(=O)c1ccc(C)c(-c2ccc3nc(N)ncc3c2)c1` [Example 146, 3-(2-amino-6-quinazolinyl)-4-methyl-N-(2-(methylsulfanyl)-5-(trifluoromethyl)phenyl)benzamide], the negative logarithm of the IC50 (pIC50) is ≥ 4.60.

As for `Cc1ccc(C(=O)Nc2cc(C(F)(F)F)ccc2N2CCN(C)CC2)cc1-c1ccc2nc(N)ncc2c1` [Example 74, 3-(2-amino-6-quinazolinyl)-4-methyl-N-(2-(4-methyl-1-piperazinyl)-5-(trifluoromethyl)phenyl)benzamide], the pIC50 is ≥ 4.60.

With `CN(C)CCOc1ccc(-c2ccc3nc(N)ncc3c2)cc1C(=O)Nc1cccc(C(F)(F)F)c1` [Example 57, 5-(2-amino-6-quinazolinyl)-2-((2-(dimethylamino)ethyl)oxy)-N-(3-(trifluoromethyl)phenyl)benzamide], the negative-log IC50 (pIC50) was ≥ 4.60.

On to `Cc1ccc(C(=O)Nc2cccc(C(F)(F)F)c2C)cc1-c1ccc2nc(NC3CCN(C)CC3)ncc2c1` [Example 36, 4-methyl-3-(2-((1-methyl-4-piperidinyl)amino)-6-quinazolinyl)-N-(2-methyl-3-(trifluoromethyl)phenyl)benzamide], for which the negative-log IC50 (pIC50) is ≥ 4.60.

`Cc1cc(NC(=O)c2ccc(C)c(-c3ccc4nc(N)ncc4c3)c2)ns1` [Example 344, 3-(2-amino-6-quinazolinyl)-4-methyl-N-(5-methyl-3-isothiazolyl) benzamide]: the pIC50 is ≥ 4.60.

As for `Cc1ccc(C(=O)Nc2cc(C(F)(F)F)ccc2OCCCN(C)C)cc1-c1ccc2nc(N)ncc2c1` [Example 144, 3-(2-amino-6-quinazolinyl)-N-(2-((3-(dimethylamino)propyl)oxy)-5-(trifluoromethyl)phenyl)-4-methylbenzamide], the pIC50 was ≥ 4.60.

As for `COc1ccc(NC(=O)c2ccc(C)c(-c3ccc4nc(N)ncc4c3)c2)c(OC)c1` [Example 270, 3-(2-amino-6-quinazolinyl)-N-(2,4-bis(methyloxy)phenyl)-4-methylbenzamide], the negative logarithm of the IC50 (pIC50) was ≥ 4.60.

As for `COc1c(Cl)cccc1NC(=O)c1ccc(C)c(-c2ccc3nc(N)ncc3c2)c1` [Example 284, 3-(2-amino-6-quinazolinyl)-N-(5-chloro-8-(methyloxy)-phenyl)-4-methylbenzamide], the negative-log IC50 (pIC50) was ≥ 4.60.

As to `Cc1cccc(C)c1-c1ccc2nc(N)ncc2c1` [Example 535, 6-(2,6-dimethylphenyl)-2-quinazolinamine], the pIC50 was ≥ 4.60.

Turning to `Cc1ccc(C(=O)Nc2ccc(OCCCN(C)C)cc2)cc1-c1ccc2nc(N)ncc2c1` [Example 69, 3-(2-amino-6-quinazolinyl)-N-(4-((3-(dimethylamino)propyl)oxy)phenyl)-4-methylbenzamide], the pIC50 was ≥ 4.60.

Regarding `Cc1ccc(C(=O)Nc2cccc(C(F)(F)F)c2F)cc1-c1ccc2nc(NCCCN3CCOCC3)ncc2c1` [Example 23, N-(2-fluoro-3-(trifluoromethyl)phenyl)-4-methyl-3-(2-((3-(4-morpholinyl)propyl)amino)-6-quinazolinyl) benzamide], the pIC50 was ≥ 4.60.

For `CNc1ncc2cc(-c3cc(C(=O)NCc4ccccn4)ccc3C)cnc2n1` [Example 185, 4-methyl-3-(2-(methylamino)pyrido [2,3-d]pyrimidin-6-yl)-N-(2-pyridinylmethyl) benzamide], the negative logarithm of the IC50 (pIC50) was ≥ 4.60.

As to `CN1CCC(c2cc(NC(=O)c3csc(-c4ccc5nc(N)ncc5c4)c3)cc(C(F)(F)F)c2)CC1` [Example 58, 5-(2-amino-6-quinazolinyl)-N-(3-(1-methyl-4-piperidinyl)-5-(trifluoromethyl)phenyl)-3-thiophenecarboxamide], the negative logarithm of the IC50 (pIC50) was ≥ 4.60.

Consider `Cc1ccc(C(=O)Nc2cc(C(C)(C)C)ccc2N(C)CCCN(C)C)cc1-c1ccc2nc(N)ncc2c1` [Example 244, 3-(2-amino-6-quinazolinyl)-N-(2-((3-(dimethylamino)propyl)(methyl)amino)-5-(1,1-dimethylethyl)phenyl)-4-methylbenzamide], for which the negative logarithm of the IC50 (pIC50) is ≥ 4.60.

For `COc1ccc(C(C)(C)C)cc1NC(=O)c1ccc(F)c(-c2ccc3nc(N)ncc3c2)c1` [Example 138, 3-(2-amino-6-quinazolinyl)-N-(5-(1,1-dimethylethyl)-2-(methyloxy)phenyl)-4-fluorobenzamide], the pIC50 is ≥ 4.60.

For the compound `Cc1ccc(C(=O)Nc2nnc(C(F)(F)F)s2)cc1-c1ccc2nc(N)ncc2c1` [Example 343, 3-(2-amino-6-quinazolinyl)-4-methyl-N-(5-(trifluoromethyl)-1,3,4-thiadiazol-2-yl)benzamide], the pIC50 was ≥ 4.60.

For `CNc1ncc2cc(-c3ccc(F)c(C(=O)Nc4cc(C(F)(F)F)ccc4N(C)CCCN(C)C)c3)ccc2n1` [Example 9, N-(2-((3-(dimethylamino)propyl)(methyl)amino)-5-(trifluoromethyl)phenyl)-2-fluoro-5-(2-(methylamino)-6-quinazolinyl)benzamide], the pIC50 was ≥ 4.60.

Regarding `Cc1ccc(C(=O)Nc2ccc(C(F)(F)F)cn2)cc1-c1ccc2nc(N)ncc2c1` [Example 360, 3-(2-amino-6-quinazolinyl)-4-methyl-N-(5-(trifluoromethyl)-2-pyridinyl)benzamide], the negative logarithm of the IC50 (pIC50) is ≥ 4.60.

Regarding `COCCNc1ncc2cc(-c3cc(C(=O)Nc4cccc(C(F)(F)F)c4F)ccc3C)ccc2n1` [Example 24, N-(2-fluoro-3-(trifluoromethyl)phenyl)-4-methyl-3-(2-((2-(methyloxy)ethyl)amino)-6-quinazolinyl) benzamide], the pIC50 is ≥ 4.60.

Turning to `CCN(CC)CC(=O)N1CC(C)(C)c2ccc(NC(=O)c3ccc(C)c(-c4ccc5nc(N)ncc5c4)c3)cc21` [Example 64, 3-(2-amino-6-quinazolinyl)-N-(1-(N,N-diethyiglycyl)-3,3-dimethyl-2,3-dihydro-1H-indol-6-yl)-4-methylbenzamide], the pIC50 is ≥ 4.60.

On to `CNc1ncc2cc(-c3cc(C(=O)Nc4cc(C(=O)NCCN5CCOCC5)cc(C(F)(F)F)c4)ccc3C)cnc2n1` [Example 189, 4-methyl-3-(2-(methylamino)pyrido [2,3-d]pyrimidin-6-yl)-N-(3-(((2-(4-morpholinyl)ethyl)amino)carbonyl)-5-(trifluoromethyl)phenyl)benzamide], for which the negative-log IC50 (pIC50) is ≥ 4.60.

Consider `Cc1ccc(C(=O)Nc2c3c(nn2CCC#N)CCC3)cc1-c1ccc2nc(N)ncc2c1` [Example 304, 3-(2-amino-6-quinazolinyl)-N-(2-(2-cyanoethyl)-2,4,5,6-tetrahydrocyclopenta [c]pyrazol-3-yl)-4-methylbenzamide], for which the pIC50 was ≥ 4.60.
